The results in this text go back to patent US5082841A, “3-carbonyl-4-amino-8-substituted quinoline compounds useful in inhibiting gastric acid secretions” (SmithKline Beecham Intercredit B.V., priority 1989, dated 1992).

The experiment concerns the target T1, H+ K+ ATPase (lyophilised gastric vesicles) (Sus scrofa, UniProt P19156).
T1 construct: Lyophilised gastric vesicles were prepared from pig fundic mucosa; from tissue; host or cells: pig fundic mucosa (lyophilised gastric vesicles)
Briefly: K+-stimulated ATPase activity in lyophilised gastric vesicles. In kind it is biochemical. The settings on record: lyophilised gastric vesicles from pig fundic mucosa, 37° C., pH 7.0, 1 mM KCl, 30 minutes incubation. How it is done: The effects of a single high concentration (100 μM) of a compound of structure (I) on K-stimulated ATPase activity in lyophilised gastric vesicles was determined. Preferred compounds of structure (I) were also tested over a range of concentrations to determine IC50 values.
(i) Preparation of lyophilised gastric vesicles (H/K-ATPase)
Lyophilised gastric vesicles were prepared from pig fundic mucosa after the method of Keeling et. al. (Biochem. Pharmacol., 34, 2967, 1985).
(ii) K^+ -stimulated ATPase activity.
K^+ -stimulated ATPase activity was determined at 37° C. in the presence of the following : I0 mM Pipes/Tris buffer pH 7.0, 2 mM MgSO4, 1 mM KCl, 2 mM Na2 ATP and 3-6 μg protein/ml lyophilised gastric vesicles. After incubation for 30 minutes, the inorganic phosphate hydrolysed from ATP was determined by the method of Yoda and Hokin (Biochem. Biophys. Res. Commun. 40, 880, 1970).
Compounds of structure (I) were dissolved in dimethylsulphoxide which up to the highest concentration used had no effect on K+-stimulated ATPase activity.
The effect of the highest concentration of each compound of structure (I) on the recovery of a standard amount of inorganic phosphate wa also determined.

T1 sequence (P19156 2-1034 limits assumed): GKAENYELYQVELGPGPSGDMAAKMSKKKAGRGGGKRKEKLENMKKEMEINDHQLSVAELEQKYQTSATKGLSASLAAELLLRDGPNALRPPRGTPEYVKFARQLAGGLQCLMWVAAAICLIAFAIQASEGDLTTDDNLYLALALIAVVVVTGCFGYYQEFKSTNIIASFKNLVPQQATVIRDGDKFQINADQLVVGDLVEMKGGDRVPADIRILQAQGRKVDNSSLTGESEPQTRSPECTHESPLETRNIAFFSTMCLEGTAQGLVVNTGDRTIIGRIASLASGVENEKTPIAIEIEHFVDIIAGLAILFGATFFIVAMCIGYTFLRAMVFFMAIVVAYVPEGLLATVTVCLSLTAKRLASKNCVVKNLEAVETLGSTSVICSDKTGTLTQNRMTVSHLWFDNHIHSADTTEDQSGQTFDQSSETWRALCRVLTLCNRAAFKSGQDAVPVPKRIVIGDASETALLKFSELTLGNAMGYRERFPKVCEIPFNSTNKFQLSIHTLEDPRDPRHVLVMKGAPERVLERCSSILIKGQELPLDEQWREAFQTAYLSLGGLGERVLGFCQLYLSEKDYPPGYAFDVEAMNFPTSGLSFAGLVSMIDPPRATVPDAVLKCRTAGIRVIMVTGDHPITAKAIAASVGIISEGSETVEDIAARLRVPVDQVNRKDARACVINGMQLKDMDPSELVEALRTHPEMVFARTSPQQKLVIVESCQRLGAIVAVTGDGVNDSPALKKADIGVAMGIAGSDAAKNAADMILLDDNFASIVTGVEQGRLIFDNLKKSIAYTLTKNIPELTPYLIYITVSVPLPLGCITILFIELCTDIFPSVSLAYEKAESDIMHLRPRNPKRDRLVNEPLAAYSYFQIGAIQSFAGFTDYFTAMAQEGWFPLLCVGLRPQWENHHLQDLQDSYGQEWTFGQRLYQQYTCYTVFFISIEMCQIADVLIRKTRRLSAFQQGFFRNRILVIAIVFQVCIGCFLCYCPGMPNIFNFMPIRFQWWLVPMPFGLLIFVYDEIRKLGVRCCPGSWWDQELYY
T1 sequence (P18434 whole entry partner): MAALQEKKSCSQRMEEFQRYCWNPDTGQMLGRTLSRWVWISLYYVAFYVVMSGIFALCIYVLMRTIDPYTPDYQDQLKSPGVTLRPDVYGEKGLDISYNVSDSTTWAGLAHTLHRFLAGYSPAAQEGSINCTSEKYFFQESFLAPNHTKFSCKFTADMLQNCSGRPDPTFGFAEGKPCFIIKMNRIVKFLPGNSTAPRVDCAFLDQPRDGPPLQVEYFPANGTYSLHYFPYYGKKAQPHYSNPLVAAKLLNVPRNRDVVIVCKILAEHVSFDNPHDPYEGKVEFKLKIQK

For the molecule `CCCC(=O)c1cnc2c(OCCCN(C)C)cccc2c1Nc1ccccc1C` [Example 1, 3-butyryl-4-(2-methylphenylamino)-8-(3-dimethylaminopropoxy)quinoline], the IC50 – broadly, the concentration needed to halve the response being measured – was 390 to 3520 nM. For `CCCC(=O)c1cnc2c(OCCCN(C)C)cccc2c1Nc1ccc(F)cc1C` [Example 2, 3-butyryl-4-(4-fluoro-2-methylphenylamino)-8-(3-dimethylaminopropoxy)quinoline], the 50% inhibitory concentration (IC50) was 390 to 3520 nM. On to `CCCC(=O)c1cnc2c(OCCN(C)C)cccc2c1Nc1ccccc1C` [Example 3, 3-butyryl-4-(2-methylphenylamino)-8-(2-dimethylaminoethoxy)quinoline], for which the concentration for half-maximal inhibition (IC50) was 390 to 3520 nM. As for `CCCC(=O)c1cnc2c(OCCCN3CCCC3)cccc2c1Nc1ccccc1C` [Example 4, 3-butyryl-4-(2-methylphenylamino)-8-(3-(1-pyrrolidinyl)propoxy)quinoline], the figure is 390 to 3520 nM. As for `CCCC(=O)c1cnc2c(OCCCN3CCCCC3)cccc2c1Nc1ccccc1C` [Example 5, 3-butyryl-4-(2-methylphenylamino)-8-(3-piperidinopropoxy)quinoline], the figure is 390 to 3520 nM. As for `CCCC(=O)c1cnc2c(OCCCN3CCOCC3)cccc2c1Nc1ccccc1C` [Example 6, 3-butyryl-4-(2-methylphenylamino)-8-(3-morpholinopropoxy)quinoline], the figure is 390 to 3520 nM; as for `CCCC(=O)c1cnc2c(C(O)CN3CCOCC3)cccc2c1Nc1ccccc1C` (centres unmarked) [Example 7, 3-butyryl-4-(2-methylphenylamino)-8-(1-hydroxy-2-(1-morpholino)ethyl)quinoline], 390 to 3520 nM; as for `CCCC(=O)c1cnc2c(C(O)CN(C)C)cccc2c1Nc1ccccc1C` (centres unmarked) [Example 8, 3-butyryl-4-(2-methylphenylamino)-8-(1-hydroxy-2-dimethylaminoethyl)quinoline], 390 to 3520 nM.

Molecule `CCCC(=O)c1cnc2c(OCCCN(C)Cc3ccccc3)cccc2c1Nc1ccccc1C` [Example 9, 3-butyryl-4-(2-methylphenylamino)-8-(3-(N-benzyl-N-methylamino)propoxy)quinoline] came in with a half-inhibitory concentration (IC50) of 390 to 3520 nM. The same measure for `CCCC(=O)c1cnc2c(OCCCN(C)CCCc3ccccc3)cccc2c1Nc1ccccc1C` [Example 10, 3-butyryl-4-(2-methylphenylamino)-8-(3-(N-methyl-N-(3-phenylpropyl)amino)propoxy)quinoline]: 390 to 3520 nM; for `CCCC(=O)c1cnc2c(NCCCN3CCOCC3)cccc2c1Nc1ccccc1C` [Example 11, 3-butyryl-4-(2-methylphenylamino)-8-(3-morpholinopropylamino)quinoline]: 390 to 3520 nM.
